{"source": "paper PMC3762611", "about": "(International Journal of Tryptophan Research : IJTR, 2013)", "target": "indoleamine 2,3-dioxygenase 1 (IDO1) (Homo sapiens, UniProt P14902)", "sequence (P14902 whole entry)": "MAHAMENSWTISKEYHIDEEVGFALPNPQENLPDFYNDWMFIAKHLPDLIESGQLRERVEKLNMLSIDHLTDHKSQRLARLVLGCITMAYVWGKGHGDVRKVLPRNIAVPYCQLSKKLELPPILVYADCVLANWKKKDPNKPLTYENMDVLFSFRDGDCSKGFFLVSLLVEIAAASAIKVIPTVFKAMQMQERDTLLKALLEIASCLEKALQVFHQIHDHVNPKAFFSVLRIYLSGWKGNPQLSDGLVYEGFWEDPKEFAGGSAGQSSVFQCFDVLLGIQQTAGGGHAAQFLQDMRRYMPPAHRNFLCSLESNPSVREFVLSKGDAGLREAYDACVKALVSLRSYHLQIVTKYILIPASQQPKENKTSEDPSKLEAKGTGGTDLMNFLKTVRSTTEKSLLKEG", "assay_type": "biochemical"}
{"smiles": "CC1(C)CCC2=C(O1)c1ccccc1C(=O)C2=O", "note": "[β-lapachone, 3,4-dihydro-2,2-dimethyl-2H-naphthol[1,2-b]pyran-5,6-dione]", "values": [{"measurement": "Ki", "value": 450, "unit": "nM"}]}
